Data: patent US7205140B2, “Nucleotide sequence for creatinine deiminase and method of use” (CampusGen GmbH, priority 2003, dated 2007)

What was measured:
[1] = test system: purified heterologously expressed creatinine deiminase from Tissierella creatinini; assay: Interference studies: compound added to the reaction mixture, creatinine deiminase activity determined (coupled optical test); format: biochemical; settings: for Maximum concentration without interference: compound added to standard reaction mixture, creatinine deiminase activity
Text: A technique for specifically measuring the creatinine concentration of a sample includes a simple indicator reaction step is provided, whereby no complicated auxiliary measurement reactions are necessary. […] Therefore, the subject creatinine deiminase polypeptide specifically and preferentially interacts with creatinine also in presence of other substrates with high specificity, without undue interference from other molecules which would otherwise compromise the accuracy of the measured value for the creatinine concentration in the sample.
(§1) The activity of the purified recombinant enzyme was determined using a modified enzymatic method developed by Bergmeyer (Bergmeyer, H. U. (1985), Methods of enzymatic analysis 8: 488–507). This method includes the measuring of free ammonia produced during a creatinine deiminase reaction via a coupled optical test, by measuring the […] of NADH consumed by the free ammonia at […] and/or 365 nm. The initial reaction comprised the following concentrations in a final volume of 0.6 ml: TEA buffer 0.11 mol/l, pH 8.6; creatinine 1.5 mmol/l; ADP 1.11 mmol/l; DTE 1 mmol/l; NADH 0.11 mmol/l; 2-oxoglutarate 11 mmol/l; glutamate dehydrogenase 8 U/ml. After incubating the reaction components (5 min at 37° C.), 0.01 ml of the purified recombinant enzyme was transferred to a cuvette and placed into a photometer for observing the extinction acceptance reaction at 340 nm. One enzyme unit was determined to catalyze the degrading of 1 μmol creatinine/min at 37° C.
A series of interference studies was performed using the purified and expressed creatinine deiminase polypeptide in the presence of the different serum compounds. The compound was provided to the standard reaction mixture and the creatinine deiminase activity was determined using the methods described above.

[2] = Enzyme activity of recombinant creatinine deiminase (coupled optical test / Jaffé method); format: biochemical
Description: The heterologous expression of an active creatinine deiminase derived from T. creatinini in E. coli (from the recombinant cell extract) was analyzed using gel electrophoresis (FIG. 8) and by determining the enzymatic activity in the cell-free raw extracts. […] Additionally, a band for the purified creatinine deiminase appeared at this same distance of 300 kDa (see FIG. 8, lanes 3 and 5), and likewise a similar band appeared in the raw extract of T. creatinini (FIG. 8, lane 2). The predicted size for creatinine deiminase (300 kDa) is well within range of the known value (288 kDa) as determined by Gottschalk et al. 1991 (supra). The specific activity of the recombinant creatinine deiminase in the cell-free extract was determined to be about 10.2 U/mg.
Heterologous sequences expressing creatinine deiminase (EC 3.5.4.21), as derived from T. creatinini, were also purified according to methods described by Gottschalk et al. 1991 (supra). The creatinine deiminase protein was purified from 5 g of cells using ammonium sulphate precipitation and chromatography to apparent homogeneity using phenylsepharose and DEAE-Sepharose CL6B (see FIG. 9). The specific activity of the purified recombinant enzyme was determined to be 1423 U/mg (see Table 2). The enzyme was suspended in a potassium phosphate buffer (KPP; pH 7.65, 50% Glycerin) and stored at −20° C. in. The purification steps are described as follows:
as §1

[3] = Storage stability of the purified enzyme in dialysis buffer; format: physicochemical; settings: in the dialysis buffer for several months
Description: These samples were dialyzed using several rounds of fresh buffer (0.05 mol/l potassium phosphate, pH 7.65/glycerine, 1:2 v/v) at 4° C. until ammonia could no longer be detected.
The purified enzyme remained stable in the dialysis buffer for several months, experiencing a loss of activity of 9.1%. The optimal pH value for the purified enzyme, when suspended in phosphate and TEA buffers, was within the range of 8.5–8.75, with maximum activity measured at 47° C.

Molecule | Maximum concentration without interference [1] [mg/L] | further results
Nc1nc(=O)[nH]cc1F [5-Fluorocytosine] | 1000 | 
CC(=O)O [Acetic acid] | 200 | 
CC(=O)CC(=O)O [Acetoacetate] | 7.8 | 
CC(C)=O [Acetone] | 2000 | 
C[C@H](CS)C(=O)N1CCC[C@H]1C(=O)O [Captopril] | 83 | 
CN(CC(=O)O)C(=N)N [Creatine] | 2000 | 
Nc1cc[nH]c(=O)n1 [Cytosine] | 2000 | concentration without any interference ([1]; as stated in the text for Table 1): up to 2000 mg/ml
CNC[C@H](O)c1ccc(O)c(O)c1 [Epinephrine] | 0.05 | 
NS(=O)(=O)c1cc(C(=O)O)c(NCc2ccco2)cc1Cl [Fuoresemide] | 4433 | 
N[C@@H](Cc1c[nH]cn1)C(=O)O [Histidine] | 2250 | 
NC[C@H](O)c1ccc(O)c(O)c1 [Norepinephrine] | 1.5 | 
O=C(O)C(=O)O [Oxalic acid] | 400 | 
O=C(O)c1cc(/N=N/c2ccc(S(=O)(=O)Nc3ccccn3)cc2)ccc1O [Salazosulphapyridine] | 550 | 
Cc1cc(NS(=O)(=O)c2ccc(N)cc2)no1 [Sulphamethoxazole] | 500 | 
COc1cc(Cc2cnc(N)nc2N)cc(OC)c1OC [Trimethoprime] | 46 | 
CN[C@H](CC(C)C)C(=O)N[C@H]1C(=O)N[C@@H](CC(N)=O)C(=O)N[C@H]2C(=O)N[C@H]3C(=O)N[C@H](C(=O)N[C@H](C(=O)O)c4cc(O)cc(O)c4-c4cc3ccc4O)[C@H](O)c3ccc(c(Cl)c3)Oc3cc2cc(c3O[C@@H]2O[C@H](CO)[C@@H](O)[C@H](O)[C@H]2O[C@H]2C[C@](C)(N)[C@H](O)[C@H](C)O2)Oc2ccc(cc2Cl)[C@H]1O [Vancomycin] | 288 | 
C[C@](N)(Cc1ccc(O)c(O)c1)C(=O)O [α-Methyl-Dopa] | 107 | 
Hemoglobin | 0 | 
recombinant creatinine deiminase: creatinine deiminase (EC 3.5.4.21) from Tissierella creatinini, heterologously expressed in E. coli; 406 amino acid polypeptide (protein, listed as Tissierella creatinini) MMKKFINAKIYKNNEATEILVEDGKIKEIGNNLADCKEVIDLGGKMVTPPYVDPHLHLDYVYTLAELGKTGAGSGTLFEAIEMWPVFKKTLTVESVKKLALKGVMDEVSQGVQHIRTHIDVTDPKFTGLKAMLEMKEELKDIVDIQIVSFPQQGMYTYKGGRELVEEALKMGADVVGGIPHYEPAREYGEMSVKATVELAMKYDKLIDVHCDETDDPQARFIELLNALVYLEGYGAKTSASHTCSFGSADDSYAYRMIDLFKKSKINFISNPTENAYLQGRHDTYPKRRGLTRVKEFMEHGINVAFAQDSINDPWYPMGNGNMMNILDNGIHLAQIMSPQDIEKDLDLITYNGARCLNIQDKYLLEVGKDSNFIVLNGDSPFDVIRNRANVLACVRKGEFYLSKNQ |  | Km ([2]; Lineweaver Burke plot analysis): 1100 µM; specific activity of the purified recombinant enzyme ([2]; after phenylsepharose and DEAE-Sepharose CL6B): 1423 U/mg; specific activity in the cell-free extract ([2]; cell-free extract of E. coli DH5α/pKT1): about 10.2 U/mg; optimal pH value ([2]; in phosphate and TEA buffers): 8.5–8.75; Vmax ([2]; per protein): 1467 U/mg; Vmax ([2]; this enzyme preparation): 8.8 U/ml; loss of activity [3]: 9.1%
